Assays:
ALK3 = ALK3 (Homo sapiens, UniProt P36894); conditions: cited from earlier work
ALK1 = ALK1 (Homo sapiens, UniProt P37023); conditions: cited from earlier work
ALK6 = ALK6 (Homo sapiens, UniProt O00238); conditions: cited from earlier work
ALK4 = conditions: cited from earlier work
ALK2 = target: T1, ALK2 (Homo sapiens, UniProt Q04771); conditions: cited from earlier work
T1 sequence (Q04771 21-509): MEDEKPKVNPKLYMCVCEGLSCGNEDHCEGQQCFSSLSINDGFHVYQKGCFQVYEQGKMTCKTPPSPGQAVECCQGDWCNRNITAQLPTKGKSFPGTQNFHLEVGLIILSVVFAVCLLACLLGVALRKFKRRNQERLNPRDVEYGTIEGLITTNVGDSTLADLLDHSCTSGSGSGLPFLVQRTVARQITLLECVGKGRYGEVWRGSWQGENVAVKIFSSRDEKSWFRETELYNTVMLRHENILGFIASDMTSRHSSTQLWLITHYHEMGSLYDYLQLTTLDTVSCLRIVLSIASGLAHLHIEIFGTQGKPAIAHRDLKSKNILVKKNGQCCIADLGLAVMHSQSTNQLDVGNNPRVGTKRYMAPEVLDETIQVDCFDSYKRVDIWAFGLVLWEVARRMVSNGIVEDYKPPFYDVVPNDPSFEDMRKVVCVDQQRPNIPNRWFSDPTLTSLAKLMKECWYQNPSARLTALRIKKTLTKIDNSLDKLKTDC

TGF-β-induced EMT = conditions: via the inhibition of Smad2 phosphorylation; cited from earlier work
human urine cells (HUC) = assay: Secondary induction, cell morphology by phase contrast microscopy; type: cell-based; conditions: after Example 2 primary induction; 330 nm Indolactam V, four days
Experimental: HUC-M-35 P5 cells were prepared using the primary induction protocol described in Example 2. The cells were then cultured in a secondary induction medium containing DMEM, […] Indolactam V, 1×2 mM L-glutamine (Life Technologies, Cat No. 25030-081), and 1×B27 (Life Technologies, Cat No. 17504044) and p/s as detailed above for four days. The morphology of the resultant cells was examined by phase contrast microscopy.
HUC-M-35 P5 cells were induced using the primary induction protocol described in Example 2. […] The morphology of the resultant cells was assessed by phase contrast microscopy.

Sequence of ALK6 (O00238 14-502): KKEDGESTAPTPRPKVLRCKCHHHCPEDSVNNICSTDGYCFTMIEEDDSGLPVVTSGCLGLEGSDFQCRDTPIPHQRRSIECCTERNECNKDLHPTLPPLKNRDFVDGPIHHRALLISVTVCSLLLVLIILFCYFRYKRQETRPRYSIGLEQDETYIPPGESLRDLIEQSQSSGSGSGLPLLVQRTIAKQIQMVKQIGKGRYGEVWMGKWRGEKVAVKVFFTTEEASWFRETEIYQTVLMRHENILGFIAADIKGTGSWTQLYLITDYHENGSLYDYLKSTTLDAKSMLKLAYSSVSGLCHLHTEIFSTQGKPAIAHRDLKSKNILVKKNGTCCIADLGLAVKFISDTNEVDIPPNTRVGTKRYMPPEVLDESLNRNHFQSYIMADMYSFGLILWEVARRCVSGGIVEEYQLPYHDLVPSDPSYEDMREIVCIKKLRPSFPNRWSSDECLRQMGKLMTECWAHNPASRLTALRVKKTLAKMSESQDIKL
Sequence of ALK1 (P37023 22-503, species assumed): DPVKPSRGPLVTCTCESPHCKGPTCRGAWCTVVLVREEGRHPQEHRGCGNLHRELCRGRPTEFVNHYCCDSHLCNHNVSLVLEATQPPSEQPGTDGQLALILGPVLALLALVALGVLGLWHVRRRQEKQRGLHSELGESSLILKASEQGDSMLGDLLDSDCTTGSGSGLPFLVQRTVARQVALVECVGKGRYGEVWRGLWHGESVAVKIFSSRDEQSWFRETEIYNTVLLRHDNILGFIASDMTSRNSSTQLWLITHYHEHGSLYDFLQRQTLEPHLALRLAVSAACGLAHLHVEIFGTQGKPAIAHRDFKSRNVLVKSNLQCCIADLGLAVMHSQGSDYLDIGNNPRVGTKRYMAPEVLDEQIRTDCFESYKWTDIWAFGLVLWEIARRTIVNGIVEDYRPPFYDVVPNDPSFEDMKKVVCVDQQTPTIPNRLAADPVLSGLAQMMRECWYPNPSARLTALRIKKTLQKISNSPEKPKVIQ
Sequence of ALK3 (P36894 24-532): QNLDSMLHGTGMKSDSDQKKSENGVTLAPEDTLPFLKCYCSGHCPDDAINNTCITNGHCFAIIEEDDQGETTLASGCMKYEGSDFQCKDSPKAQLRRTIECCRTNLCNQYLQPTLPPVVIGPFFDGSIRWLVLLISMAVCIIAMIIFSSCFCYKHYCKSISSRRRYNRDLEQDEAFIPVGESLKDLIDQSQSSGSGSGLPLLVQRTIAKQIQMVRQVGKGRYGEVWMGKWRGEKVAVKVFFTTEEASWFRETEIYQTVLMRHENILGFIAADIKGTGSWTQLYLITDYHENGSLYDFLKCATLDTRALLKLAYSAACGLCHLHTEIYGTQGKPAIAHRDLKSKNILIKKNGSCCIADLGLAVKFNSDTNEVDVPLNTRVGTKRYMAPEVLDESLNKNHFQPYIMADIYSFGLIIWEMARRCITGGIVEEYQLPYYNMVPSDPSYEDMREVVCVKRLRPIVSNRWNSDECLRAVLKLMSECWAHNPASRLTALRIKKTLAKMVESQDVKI

Question: Which “inhibition of ALK3” value (ALK3) does the source give for `Cc1cccc(-c2nn(C(=S)Nc3ccccc3)cc2-c2ccnc3ccccc23)n1` [A83-01, 3-(6-Methyl-2-pyridinyl)-N-phenyl-4-(4-quinolinyl)-1H-pyrazole-1-carbothioamide] here?
Answer: The value was “weakly inhibits”.

Question: And the “inhibition of ALK1” value (ALK1)?
Answer: Its value is “weakly inhibits”.

Question: And the “inhibition of ALK6” value (ALK6)?
Answer: The value was “weakly inhibits”.

Question: What about the IC50 (ALK4) of the same compound?
Answer: Its IC50 is 12 nM.

Question: And the “inhibition of ALK2” value (ALK2)?
Answer: Its value is “weakly inhibits”.

Question: What about the “inhibition of TGF-β-induced EMT” value (TGF-β-induced EMT) of the same compound?
Answer: Its value is “inhibit”.

Question: For `CC(C)[C@H]1C(=O)N[C@H](CO)Cc2c[nH]c3cccc(c23)N1C` [Indolactam V, (2S,5S)-1,2,4,5,6,8-Hexahydro-5-(hydroxymethyl)-1-methyl-2-(1-methylethyl)-3H-pyrrolo[4,3,2-gh]-1,4-benzodiazonin-3-one], which “cell morphology following secondary induction” value (human urine cells (HUC)) is on record?
Answer: Its value is “some cells appeared to have an islet cell morphology”.
